# Test results taken from PMC5940854, “Nitrothiophene carboxamides, a novel narrow spectrum antibacterial series: Mechanism of action and Efficacy” (Scientific Reports, 2018).
# Experiments:
# [1] = molecular target: T1, AcrB efflux pump in E. coli BW25113 (Escherichia coli, UniProt P31224); test: Nile red efflux assay (whole-cell competition); assay type: cell-based; details: for Concentration of compound required for complete inhibition of Nile red efflux (Tefflux50 >200 seconds): E. coli BW25113
# T1 construct: endogenous in cells; host or cells: E. coli BW25113 (wild type)
# [2] = tested on: E. coli clinical isolates; test: MIC on panel of E. coli clinical isolates; assay type: cell-based; details: for MIC Range / MIC50 / MIC90: 75 E.coli clinical isolates; for MIC50 / MIC90: Escherichia coli; for MIC50: 50% clinical isolates; for MIC90: 90% clinical isolates
# [3] = tested on: E. coli ∆nfsAB & ∆acrB+nfnB; set-up: unit not given beside the values
# Description: (§1) The inoculum used for all the experiments is derived from a single seed lot that is maintained as glycerol stocks at −80 °C and are sub cultured on LB plate for isolated colonies. Single colony of each strain is grown in M9 medium. All test compound stocks and dilutions are prepared in DMSO. Serial two-fold dilutions of compounds are prepared separately, with the concentrations ranging from 2 mg/mL to 0.015 mg/mL. To 150 µl (3–7 × 10^5 CFU/ml) of bacterial culture in 96 well microtitre plates, 3 μL compound from each of the dilutions is added to respective wells to obtain final concentrations ranging from 40 µg/mL to 0.3 µg/mL of the test compounds. Media control, culture control and appropriate reference drug controls are included. […] Growth is monitored by checking absorbance at 600 nm (A600). […] The samples from MIC and above concentrations are plated for MBC (Minimum Bactericidal Concentration). The samples are diluted 1:10 and plated on LB agar plates. […] The killing kinetics is determined by enumerating survivors at various time points following compound exposure. E. coli cells (~10^7 CFU/ml; A600 of 0.1) are treated with various concentrations (40 µg/mL to 0.3 µg/mL) of compounds in a 96-well microtitre plate. At various time intervals (0 to 8 h), 30 μl volumes of treated cultures are serially diluted and plated on LB agar plates. […] Data is expressed as the log10 CFU for each drug treatment.
# [4] = tested on: Klebsiella pneumoniae ATCC13883; test: MIC, Klebsiella pneumoniae; assay type: cell-based; details: for MIC Klebsiella pneumoniae: ATCC13883; for fold lower potency in comparison to E. coli WT MIC: WT K. pneumoniae ATCC strain
# Description: as §1
# [5] = 1µM compound, time for 50% of Nile red to be effluxed, read for 200 seconds
# T1 sequence (P0AE06 25-397): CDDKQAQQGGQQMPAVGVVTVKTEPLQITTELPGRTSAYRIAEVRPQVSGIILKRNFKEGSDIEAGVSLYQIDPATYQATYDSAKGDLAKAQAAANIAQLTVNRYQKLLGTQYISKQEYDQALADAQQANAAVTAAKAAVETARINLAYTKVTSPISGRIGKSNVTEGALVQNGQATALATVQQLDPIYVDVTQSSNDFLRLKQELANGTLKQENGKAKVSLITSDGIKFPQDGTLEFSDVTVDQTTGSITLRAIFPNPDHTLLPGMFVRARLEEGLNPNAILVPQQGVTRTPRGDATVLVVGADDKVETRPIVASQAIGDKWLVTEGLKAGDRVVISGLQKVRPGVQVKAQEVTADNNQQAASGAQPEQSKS
# T1 sequence (P31224 whole entry): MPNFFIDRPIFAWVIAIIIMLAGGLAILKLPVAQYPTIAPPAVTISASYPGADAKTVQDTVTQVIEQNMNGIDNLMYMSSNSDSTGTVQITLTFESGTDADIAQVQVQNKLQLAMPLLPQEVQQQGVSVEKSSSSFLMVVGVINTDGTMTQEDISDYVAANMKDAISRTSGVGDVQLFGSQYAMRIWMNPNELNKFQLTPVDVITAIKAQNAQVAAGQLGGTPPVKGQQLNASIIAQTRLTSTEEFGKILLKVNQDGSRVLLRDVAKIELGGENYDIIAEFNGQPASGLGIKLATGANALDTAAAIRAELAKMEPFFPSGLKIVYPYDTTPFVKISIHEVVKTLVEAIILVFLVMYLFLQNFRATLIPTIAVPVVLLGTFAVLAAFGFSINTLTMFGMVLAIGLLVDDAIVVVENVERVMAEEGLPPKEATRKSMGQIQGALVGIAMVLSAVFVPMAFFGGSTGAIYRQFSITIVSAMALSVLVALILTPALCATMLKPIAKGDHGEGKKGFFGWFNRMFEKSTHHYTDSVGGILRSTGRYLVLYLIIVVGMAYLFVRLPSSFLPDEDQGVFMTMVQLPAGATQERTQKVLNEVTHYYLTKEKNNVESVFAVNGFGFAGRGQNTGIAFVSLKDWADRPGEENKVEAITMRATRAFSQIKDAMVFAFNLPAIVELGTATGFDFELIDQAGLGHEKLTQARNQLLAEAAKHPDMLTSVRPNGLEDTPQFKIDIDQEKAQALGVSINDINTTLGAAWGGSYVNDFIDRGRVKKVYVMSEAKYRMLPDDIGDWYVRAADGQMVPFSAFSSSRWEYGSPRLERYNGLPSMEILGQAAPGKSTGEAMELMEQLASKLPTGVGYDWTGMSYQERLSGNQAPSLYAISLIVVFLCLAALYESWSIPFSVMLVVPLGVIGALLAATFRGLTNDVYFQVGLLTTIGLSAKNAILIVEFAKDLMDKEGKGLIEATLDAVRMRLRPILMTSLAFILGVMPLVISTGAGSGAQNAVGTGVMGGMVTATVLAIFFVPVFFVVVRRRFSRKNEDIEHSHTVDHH
# T1 sequence (P02930 23-493, further chain): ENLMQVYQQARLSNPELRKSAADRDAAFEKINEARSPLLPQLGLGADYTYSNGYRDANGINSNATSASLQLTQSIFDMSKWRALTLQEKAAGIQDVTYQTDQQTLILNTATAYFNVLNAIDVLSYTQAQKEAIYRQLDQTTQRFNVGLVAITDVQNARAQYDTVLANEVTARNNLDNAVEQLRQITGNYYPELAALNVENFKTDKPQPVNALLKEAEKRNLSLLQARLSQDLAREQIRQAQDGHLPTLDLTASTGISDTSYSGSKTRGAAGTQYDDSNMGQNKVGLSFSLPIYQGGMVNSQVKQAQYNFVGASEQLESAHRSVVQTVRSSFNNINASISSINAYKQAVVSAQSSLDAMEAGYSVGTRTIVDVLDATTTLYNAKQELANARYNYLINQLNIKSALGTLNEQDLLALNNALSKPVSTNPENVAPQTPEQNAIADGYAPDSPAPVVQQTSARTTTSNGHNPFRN
smiles,measurement,setting,value
"O=C(Nc1nc(-c2ccc(F)cc2)cs1)c1ccc([N+](=O)[O-])s1 [compound 15, N-(4-(4-Fluorophenyl)thiazol-2-yl)-5-nitrothiophene-2-carboxamide]",Tefflux50,[1]; [5],61.52 s
same,Tefflux50,[1]; 9µM compound,72.51 s
same,Tefflux50,[1]; 27µM compound,81.24 s
same,Tefflux50,[1]; 81µM compound,124.25 s
same,Tefflux50,[1]; 100µM compound,200 s
same,Tefflux50,[1]; 200µM compound,200 s
same,Tefflux50,[1]; 400µM compound,200 s
same,Concentration of compound required for complete inhibition of Nile red efflux (Tefflux50 >200 seconds),[1],100 µM
same,MIC Range,[2],0.6 to 40 µg/mL
same,MIC50,[2],1.25 µg/mL
same,MIC90,[2],10 µg/mL
same,MIC,[2]; strain SEC001,1 µg/mL
same,MIC,[2]; strain SEC002,0.5 µg/mL
same,MIC,[2]; strain SEC003,4 µg/mL
same,MIC,[2]; strain SEC004,1 µg/mL
same,MIC,[2]; strain SEC005,0.5 µg/mL
same,MIC,[2]; strain SEC006,0.5 µg/mL
same,MIC,[2]; strain SEC007,1 µg/mL
same,MIC,[2]; strain SEC008,4 µg/mL
same,MIC,[2]; strain SEC011,0.5 µg/mL
same,MIC,[2]; strain SEC012,1 µg/mL
same,MIC,[2]; strain SEC013,2 µg/mL
same,MIC,[2]; strain SEC014,1 µg/mL
same,MIC,[2]; strain SEC015,0.5 µg/mL
same,MIC,[2]; strain SEC016,8 µg/mL
same,MIC,[2]; strain SEC017,1 µg/mL
same,MIC,[2]; strain SEC018,0.5 µg/mL
same,MIC,[2]; strain SEC019,4 µg/mL
same,MIC,[2]; strain SEC020,1 µg/mL
same,MIC,[2]; strain SEC021,0.5 µg/mL
same,MIC,[2]; strain SEC022,1 µg/mL
same,MIC,[2]; strain SEC023,0.5 µg/mL
same,MIC,[2]; strain SEC024,2 µg/mL
same,MIC,[2]; strain SEC025,4 µg/mL
same,MIC,[2]; strain SEC026,2 µg/mL
same,MIC,[2]; strain SEC028,1 µg/mL
same,MIC,[2]; strain SEC029,8 µg/mL
same,MIC,[2]; strain SEC031,8 µg/mL
same,MIC,[2]; strain SEC032,1 µg/mL
same,MIC,[2]; strain SEC033,1 µg/mL
same,MIC,[2]; strain SEC034,1 µg/mL
same,MIC,[2]; strain SEC035,8 µg/mL
same,MIC,[2]; strain SEC036,2 µg/mL
same,MIC,[2]; strain SEC037,8 µg/mL
same,MIC,[2]; strain SEC038,8 µg/mL
same,MIC,[2]; strain SEC039,4 µg/mL
same,MIC,[2]; strain SEC040,8 µg/mL
same,MIC,[2]; strain SEC041,8 µg/mL
same,MIC,[2]; strain SEC042,8 µg/mL
same,MIC,[2]; strain SEC043,8 µg/mL
same,MIC,[2]; strain SEC044,8 µg/mL
same,MIC,[2]; strain SEC045,8 µg/mL
same,MIC,[2]; strain SEC046,8 µg/mL
same,MIC,[2]; strain SEC047,8 µg/mL
same,MIC,[2]; strain SEC048,8 µg/mL
same,MIC,[2]; strain SEC049,8 µg/mL
same,MIC,[2]; strain SEC050,2 µg/mL
same,MIC,[2]; strain SEC051,2 µg/mL
same,MIC,[2]; strain SEC052,1 µg/mL
same,MIC,[2]; strain SEC053,8 µg/mL
same,MIC,[2]; strain SEC054,1 µg/mL
same,MIC,[2]; strain SEC055,1 µg/mL
same,MIC,[2]; strain SEC057,1 µg/mL
same,MIC,[2]; strain SEC058,0.5 µg/mL
same,MIC,[2]; strain SEC059,0.5 µg/mL
same,MIC,[2]; strain SEC060,0.5 µg/mL
same,MIC,[2]; strain SEC061,2 µg/mL
same,MIC,[2]; strain SEC062,2 µg/mL
same,MIC,[2]; strain SEC063,1 µg/mL
same,MIC,[2]; strain SEC064,1 µg/mL
same,MIC,[2]; strain SEC065,1 µg/mL
same,MIC,[2]; strain SEC067,1 µg/mL
same,MIC,[2]; strain SEC068,1 µg/mL
same,MIC,[2]; strain SEC069,1 µg/mL
same,MIC,[2]; strain SEC070,4 µg/mL
same,MIC,[2]; strain SEC071,8 µg/mL
same,MIC,[2]; strain SEC072,8 µg/mL
same,MIC,[2]; strain SEC073,8 µg/mL
same,MIC,[2]; strain SEC074,1 µg/mL
same,MIC,[2]; strain SEC075,1 µg/mL
same,MIC,[2]; strain SEC076,1 µg/mL
same,MIC,[2]; strain SEC077,0.5 µg/mL
same,MIC,[2]; strain SEC078,0.5 µg/mL
same,MIC,[2]; strain SEC079,1 µg/mL
same,MIC,[2]; strain SEC080,1 µg/mL
same,MIC ∆nfsAB & ∆acrB+nfnB,[3],0.6
same,MIC Klebsiella pneumoniae,[4],5 µg/mL
same,fold lower potency in comparison to E. coli WT MIC,[4],4-8 fold
"COc1cc(-c2csc(NC(=O)c3ccc([N+](=O)[O-])s3)n2)ccc1Cl [compound 20, N-(4-(4-chloro-3-methoxyphenyl)thiazol-2-yl)-5-nitrothiophene-2-carboxamide]",Tefflux50,[1]; [5],69.24 s
same,Tefflux50,[1]; 9µM compound,71.14 s
same,Tefflux50,[1]; 27µM compound,72.65 s
same,Tefflux50,[1]; 81µM compound,104.21 s
same,Tefflux50,[1]; 100µM compound,200 s
same,Tefflux50,[1]; 200µM compound,200 s
same,Tefflux50,[1]; 400µM compound,200 s
same,Concentration of compound required for complete inhibition of Nile red efflux (Tefflux50 >200 seconds),[1],100 µM
same,MIC Range,[2],0.6 to 10 µg/mL
same,MIC50,[2],5 µg/mL
same,MIC90,[2],10 µg/mL
same,MIC,[2]; strain SEC001,8 µg/mL
same,MIC,[2]; strain SEC002,8 µg/mL
same,MIC,[2]; strain SEC003,8 µg/mL
same,MIC,[2]; strain SEC004,8 µg/mL
same,MIC,[2]; strain SEC005,8 µg/mL
same,MIC,[2]; strain SEC006,8 µg/mL
same,MIC,[2]; strain SEC007,8 µg/mL
same,MIC,[2]; strain SEC008,8 µg/mL
same,MIC,[2]; strain SEC011,8 µg/mL
same,MIC,[2]; strain SEC012,2 µg/mL
same,MIC,[2]; strain SEC013,8 µg/mL
same,MIC,[2]; strain SEC014,8 µg/mL
same,MIC,[2]; strain SEC015,8 µg/mL
same,MIC,[2]; strain SEC016,2 µg/mL
same,MIC,[2]; strain SEC017,0.06 µg/mL
same,MIC,[2]; strain SEC018,1 µg/mL
same,MIC,[2]; strain SEC019,2 µg/mL
same,MIC,[2]; strain SEC020,8 µg/mL
same,MIC,[2]; strain SEC021,1 µg/mL
same,MIC,[2]; strain SEC022,4 µg/mL
same,MIC,[2]; strain SEC023,8 µg/mL
same,MIC,[2]; strain SEC024,8 µg/mL
same,MIC,[2]; strain SEC025,4 µg/mL
same,MIC,[2]; strain SEC026,8 µg/mL
same,MIC,[2]; strain SEC028,1 µg/mL
same,MIC,[2]; strain SEC029,2 µg/mL
same,MIC,[2]; strain SEC031,1 µg/mL
same,MIC,[2]; strain SEC032,8 µg/mL
same,MIC,[2]; strain SEC033,2 µg/mL
same,MIC,[2]; strain SEC034,8 µg/mL
same,MIC,[2]; strain SEC035,8 µg/mL
same,MIC,[2]; strain SEC036,8 µg/mL
same,MIC,[2]; strain SEC037,1 µg/mL
same,MIC,[2]; strain SEC038,0.25 µg/mL
same,MIC,[2]; strain SEC039,8 µg/mL
same,MIC,[2]; strain SEC040,2 µg/mL
same,MIC,[2]; strain SEC041,8 µg/mL
same,MIC,[2]; strain SEC042,8 µg/mL
same,MIC,[2]; strain SEC043,8 µg/mL
same,MIC,[2]; strain SEC044,8 µg/mL
same,MIC,[2]; strain SEC045,2 µg/mL
same,MIC,[2]; strain SEC046,8 µg/mL
same,MIC,[2]; strain SEC047,0.25 µg/mL
same,MIC,[2]; strain SEC048,8 µg/mL
same,MIC,[2]; strain SEC049,8 µg/mL
same,MIC,[2]; strain SEC050,8 µg/mL
same,MIC,[2]; strain SEC051,8 µg/mL
same,MIC,[2]; strain SEC052,1 µg/mL
same,MIC,[2]; strain SEC053,2 µg/mL
same,MIC,[2]; strain SEC054,2 µg/mL
same,MIC,[2]; strain SEC055,2 µg/mL
same,MIC,[2]; strain SEC057,8 µg/mL
same,MIC,[2]; strain SEC058,8 µg/mL
same,MIC,[2]; strain SEC059,2 µg/mL
same,MIC,[2]; strain SEC060,8 µg/mL
same,MIC,[2]; strain SEC061,4 µg/mL
same,MIC,[2]; strain SEC062,1 µg/mL
same,MIC,[2]; strain SEC063,2 µg/mL
same,MIC,[2]; strain SEC064,8 µg/mL
same,MIC,[2]; strain SEC065,2 µg/mL
same,MIC,[2]; strain SEC067,2 µg/mL
same,MIC,[2]; strain SEC068,8 µg/mL
same,MIC,[2]; strain SEC069,8 µg/mL
same,MIC,[2]; strain SEC070,8 µg/mL
same,MIC,[2]; strain SEC071,1 µg/mL
same,MIC,[2]; strain SEC072,4 µg/mL
same,MIC,[2]; strain SEC073,8 µg/mL
same,MIC,[2]; strain SEC074,8 µg/mL
same,MIC,[2]; strain SEC075,4 µg/mL
same,MIC,[2]; strain SEC076,4 µg/mL
same,MIC,[2]; strain SEC077,2 µg/mL
same,MIC,[2]; strain SEC078,4 µg/mL
same,MIC,[2]; strain SEC079,2 µg/mL
same,MIC,[2]; strain SEC080,4 µg/mL
same,MIC ∆nfsAB & ∆acrB+nfnB,[3],0.6
same,MIC Klebsiella pneumoniae,[4],10 µg/mL
same,fold lower potency in comparison to E. coli WT MIC,[4],4-8 fold
